# Reference: patent publication US11242337B2, “Compounds useful for treating gastrointestinal tract disorders” (Ardelyx, Inc., priority 2017, dated 2022)
# Columns and labels:
# NHE3 [1] = biological target: T1, NHE3 (Homo sapiens, UniProt P48764); assay: Cell-based assay of NHE-3 activity (persistent inhibition), human; conditions: human Persistence, 60 min incubation then washout
# T1 construct: expressed in transfected cells
# T1 sequence (P48764 26-834): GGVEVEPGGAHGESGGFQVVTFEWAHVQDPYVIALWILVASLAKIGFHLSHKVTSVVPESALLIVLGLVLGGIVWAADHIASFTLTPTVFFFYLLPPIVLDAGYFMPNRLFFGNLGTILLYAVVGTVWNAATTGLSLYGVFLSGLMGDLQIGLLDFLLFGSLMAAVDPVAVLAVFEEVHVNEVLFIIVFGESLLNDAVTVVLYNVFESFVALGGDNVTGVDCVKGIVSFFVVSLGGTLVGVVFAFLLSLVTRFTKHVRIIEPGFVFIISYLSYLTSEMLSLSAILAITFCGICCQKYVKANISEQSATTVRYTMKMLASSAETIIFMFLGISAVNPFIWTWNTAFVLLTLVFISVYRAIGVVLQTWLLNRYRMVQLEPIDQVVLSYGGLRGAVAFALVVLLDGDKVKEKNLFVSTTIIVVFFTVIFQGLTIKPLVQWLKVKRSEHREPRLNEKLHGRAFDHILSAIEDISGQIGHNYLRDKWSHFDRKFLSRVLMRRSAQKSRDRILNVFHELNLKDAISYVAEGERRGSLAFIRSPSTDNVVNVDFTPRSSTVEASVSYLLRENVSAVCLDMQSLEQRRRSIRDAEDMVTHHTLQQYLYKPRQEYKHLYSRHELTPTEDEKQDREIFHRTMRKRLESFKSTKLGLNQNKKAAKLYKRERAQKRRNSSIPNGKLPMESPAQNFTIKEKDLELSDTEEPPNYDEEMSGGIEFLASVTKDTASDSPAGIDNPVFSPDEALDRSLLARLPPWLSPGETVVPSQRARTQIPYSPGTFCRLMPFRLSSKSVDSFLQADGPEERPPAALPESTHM
# T1 sequence (Q99653 2-195 partner limits assumed): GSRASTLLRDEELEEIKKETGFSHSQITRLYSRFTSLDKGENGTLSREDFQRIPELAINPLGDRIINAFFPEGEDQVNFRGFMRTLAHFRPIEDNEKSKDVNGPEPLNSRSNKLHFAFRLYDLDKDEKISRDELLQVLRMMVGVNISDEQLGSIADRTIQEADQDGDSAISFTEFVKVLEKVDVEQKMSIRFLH
# Experimental: The ability of compounds to inhibit human and rat NHE-3-mediated Na^+ dependent H^+ antiport after application and washout was measured using a modification of the pH sensitive dye method described above. PS120 fibroblasts stably expressing human NHE3 and NHERF2 were obtained from Mark Donowitz (Baltimore, Md.). Opossum kidney (OK) cells were obtained from the ATCC and propagated per their instructions. The rat NHE-3 gene was introduced into OK cells via electroporation, and cells were seeded into 96 well plates and grown overnight. Medium was aspirated from the wells, cells were washed once with NaCl-HEPES buffer (100 mM NaCl, 50 mM HEPES, 10 mM glucose, 5 mM KCl, 2 mM CaCl2, 1 mM MgCl2, pH 7.4), then overlayed with NaCl-HEPES buffer containing 0-30 μM test compound. After a 60 min incubation at room temperature, the test drug containing buffer was aspirated from the cells. Following aspiration, cells were washed once with NaCl-HEPES buffer without drug, then incubated for 30 min at 37° C. with NH4Cl-HEPES buffer (20 mM NH4Cl, 80 mM NaCl, 50 mM HEPES, 5 mM KCl, 2 mM CaCl2, 1 mM MgCl2, pH 7.4) containing 5 μM BCECF-AM. Cells were washed once with Ammonium free, Na^+-free HEPES (100 mM choline, 50 mM HEPES, 10 mM glucose, 5 mM KCl, 2 mM CaCl2, 1 mM MgCl2, pH 7.4) and incubated in the same buffer for 10 minutes at room temperature to lower intracellular pH. NHE-3-mediated recovery of neutral intracellular pH was initiated (10 min after compound washout) by addition of Na-HEPES buffer. […] Changes in intracellular pH were monitored using a FLIPR Tetra® (Molecular Devices, Sunnyvale, Calif.) by excitation at λex 439 to 505 nm, and measuring BCECF fluorescence at λem 538 nm. The initial rate of the fluorescence ratio change was used as a measure of NHE-mediated Na^+/H^+ activity, and reported as the change in fluorescence ratio per minute.
# NHE3 [2] = biological target: T1, NHE3; assay: Cell-based assay of NHE-3 activity (pre-incubation inhibition), human; conditions: human Preincubation; for pIC50: 0-30 μM test compound
# Experimental: Rat and human NHE-3-mediated Na^+-dependent H^+ antiport was measured using a modification of the pH sensitive dye method originally reported by Paradiso (Proc. Natl. Acad. Sci. USA. (1984) 81(23): 7436-7440). PS120 fibroblasts stably expressing human NHE3 and NHERF2 were obtained from Mark Donowitz (Baltimore, Md.). Opossum kidney (OK) cells were obtained from the ATCC and propagated per their instructions. The rat NHE-3 gene (GenBank M85300) was introduced into OK cells via electroporation, and cells were seeded into 96 well plates and grown overnight. Medium was aspirated from the wells then incubated for 30 min at 37° C. with NH4Cl-HEPES buffer (20 mM NH4Cl, 80 mM NaCl, 50 mM HEPES, 5 mM KCl, 2 mM CaCl2, 1 mM MgCl2, pH 7.4) containing 5 μM BCECF-AM. Cells were washed once with Ammonium free, Na^+-free HEPES (100 mM choline, 50 mM HEPES, 10 mM glucose, 5 mM KCl, 2 mM CaCl2, 1 mM MgCl2, pH 7.4) and incubated in the same buffer for 10 minutes at room temperature to lower intracellular pH with 0-30 μM test compound. […] Changes in intracellular pH were monitored using a FLIPR Tetra® (Molecular Devices, Sunnyvale, Calif.) by excitation at λex 439 to 505 nm, and measuring BCECF fluorescence at λem 538 nm. The initial rate of the fluorescence ratio change was used as a measure of NHE-mediated Na^+/H^+ activity, and reported as the change in fluorescence ratio per minute.
Compound,% inhibition (NHE3 [1]),% inhibition (NHE3 [2]),IC50 (NHE3 [1]) [nM],pIC50 (NHE3 [2]),pIC50 (NHE3 [1])
"Cc1cc(S(=O)(=O)NCCOCCOCCNC(=O)NCCCCNC(=O)NCCOCCOCCNS(=O)(=O)c2ccc(O[C@H]3c4cc(Cl)cc(C#N)c4C[C@@H]3N3CCC[C@@H](N)C3)c(C)c2)ccc1O[C@H]1c2cc(Cl)cc(C#N)c2C[C@@H]1N1CCC[C@@H](N)C1 [Example 8, 3-[2-(2-[2-[(4-[[(1S,2S)-2-[(3R)-3-Aminopiperidin-1-yl]-6-chloro-4-cyano-2,3-dihydro-1H-inden-1-yl]oxy]-3-methylbenzene)sulfonamido]ethoxy]ethoxy)ethyl]-1-[4-([[2-(2-[2-[(4-[[(1S,2S)-2-[(3R)-3-aminopiperidin-1-yl]-6-chloro-4-cyano-2,3-dihydro-1H-inden-1-yl]oxy]-3-methylbenzene)sulfonamido]ethoxy]ethoxy)ethyl]carbamoyl]amino)butyl]urea; bis(trifluoroacetic acid)]",A (NHE3 < 40%),A (NHE3 < 40%),,,
"COc1cc(Cl)cc2c1C[C@H](N1CCC[C@@H](N)C1)[C@H]2Oc1ccc(S(=O)(=O)NCCOCCOCCNC(=O)NCCCCNC(=O)NCCOCCOCCNS(=O)(=O)c2ccc(O[C@H]3c4cc(Cl)cc(OC)c4C[C@@H]3N3CCC[C@@H](N)C3)c(C)c2)cc1C [Example 9, 3-[2-(2-[2-[(4-[[(1S,2S)-2-[(3R)-3-Aminopiperidin-1-yl]-6-chloro-4-methoxy-2,3-dihydro-1H-inden-1-yl]oxy]-3-methylbenzene)sulfonamido]ethoxy]ethoxy)ethyl]-1-[4-([[2-(2-[2-[(4-[[(1S,2S)-2-[(3R)-3-aminopiperidin-1-yl]-6-chloro-4-methoxy-2,3-dihydro-1H-inden-1-yl]oxy]-3-methylbenzene)sulfonamido]ethoxy]ethoxy)ethyl]carbamoyl]amino)butyl]urea bis(trifluoroacetic acid)]",B (40-70%),A (NHE3 < 40%),100 to 1000,C (NHE3 pIC50 > 7),
"Cc1cc(Cl)cc2c1C[C@H](N1CCC[C@@H](N)C1)[C@H]2Oc1ccc(S(=O)(=O)NCCOCCOCCNC(=O)NCCCCNC(=O)NCCOCCOCCNS(=O)(=O)c2ccc(O[C@H]3c4cc(Cl)cc(C)c4C[C@@H]3N3CCC[C@@H](N)C3)c(F)c2)cc1F [Example 10, 3-[2-(2-[2-[(4-[[(1S,2S)-2-[(3R)-3-Aminopiperidin-1-yl]-6-chloro-4-methyl-2,3-dihydro-1H-inden-1-yl]oxy]-3-fluorobenzene)sulfonamido]ethoxy]ethoxy)ethyl]-1-[4-[[(2-(2-[2-[(4-[[(1S,2S)-2-[(3R)-3-aminopiperidin-1-yl]-6-chloro-4-methyl-2,3-dihydro-1H-inden-1-yl]oxy]-3-fluorobenzene)sulfonamido]ethoxy]ethoxy)ethyl]carbamoyl]amino)butyl]urea; bis(trifluoroacetic acid)]",C (>70%),B (40-70%),,,
Cc1cc(Cl)cc2c1C[C@H](N(C)C)[C@H]2Oc1ccc(S(=O)(=O)NCCOCCOCCNC(=O)NCCCCNC(=O)NCCOCCOCCNS(=O)(=O)c2ccc(O[C@H]3c4cc(Cl)cc(C)c4C[C@@H]3N(C)C)cc2)cc1 [Example 11],C (>70%),C (>70%),,C (NHE3 pIC50 > 7),C (NHE3 pIC50 > 7)
"CN(C)[C@H]1Cc2c(C#N)cc(Cl)cc2[C@@H]1Oc1ccc(S(=O)(=O)NCCOCCOCCNC(=O)NCCCCNC(=O)NCCOCCOCCNS(=O)(=O)c2ccc(O[C@H]3c4cc(Cl)cc(C#N)c4C[C@@H]3N(C)C)cc2)cc1 [Example 12, 3-[2-(2-[2-[(4-[[(1S,2S)-6-Chloro-4-cyano-2-(dimethylamino)-2,3-dihydro-1H-inden-1-yl]oxy]benzene)sulfonamido]ethoxy]ethoxy)ethyl]-1-[4-([[2-(2-[2-[(4-[[(1S,2S)-6-chloro-4-cyano-2-(dimethylamino)-2,3-dihydro-1H-inden-1-yl]oxy]benzene)sulfonamido]ethoxy]ethoxy)ethyl]carbamoyl]amino)butyl]urea; bis(trifluoroacetic acid)]",B (40-70%),A (NHE3 < 40%),100 to 1000,C (NHE3 pIC50 > 7),
"CN(C)[C@H]1Cc2c(cc(Cl)cc2C(F)(F)F)[C@@H]1Oc1ccc(S(=O)(=O)NCCOCCOCCNC(=O)NCCCCNC(=O)NCCOCCOCCNS(=O)(=O)c2ccc(O[C@H]3c4cc(Cl)cc(C(F)(F)F)c4C[C@@H]3N(C)C)cc2)cc1 [Example 13, 3-[2-(2-[2-[(4-[[(1S,2S)-6-Chloro-2-(dimethylamino)-4-(trifluoromethyl)-2,3-dihydro-1H-inden-1-yl]oxy]benzene)sulfonamido]ethoxy]ethoxy)ethyl]-1-[4-([[2-(2-[2-[(4-[[(1S,2S)-6-chloro-2-(dimethylamino)-4-(trifluoromethyl)-2,3-dihydro-1H-inden-1-yl]oxy]benzene)sulfonamido]ethoxy]ethoxy)ethyl]carbamoyl]amino)butyl]urea]",A (NHE3 < 40%),A (NHE3 < 40%),,,
"CN(C)[C@H]1Cc2c(OC(F)(F)F)cc(Cl)cc2[C@@H]1Oc1ccc(S(=O)(=O)NCCOCCOCCNC(=O)NCCCCNC(=O)NCCOCCOCCNS(=O)(=O)c2ccc(O[C@H]3c4cc(Cl)cc(OC(F)(F)F)c4C[C@@H]3N(C)C)cc2)cc1 [Example 14, 1-[2-(2-[2-[(4-[[(1S,2S)-6-Chloro-2-(dimethylamino)-4-(trifluoromethoxy)-2,3-dihydro-1H-inden-1-yl]oxy]benzene)sulfonamido]ethoxy]ethoxy)ethyl]-3-[4-([[2-(2-[2-[(4-[[(1S,2S)-6-chloro-2-(dimethylamino)-4-(trifluoromethoxy)-2,3-dihydro-1H-inden-1-yl]oxy]benzene)sulfonamido]ethoxy]ethoxy)ethyl]carbamoyl]amino)butyl]urea]",A (NHE3 < 40%),B (40-70%),,,
